From ChEMBL document CHEMBL1909046, “DrugMatrix in vitro pharmacology data” come the findings set out here.

The structures appear in SMILES notation.

One may read the IC50 as the midpoint of a concentration-inhibition curve. As a reminder, the Ki is a dissociation constant, usually derived from enzyme kinetics or from competition with a known ligand.

For assay [1], the target named is Beta-1 adrenergic receptor (Homo sapiens, UniProt P08588). In words: DRUGMATRIX: Adrenergic beta1 radioligand binding (ligand: [125I] Cyanopindolol). The following applies: cho-k1; Not Active = under 50% inhibition at 10 µM. Type of assay: cell membranes, CHO-K1, Membrane.
Sequence of Beta-1 adrenergic receptor (P08588 whole entry): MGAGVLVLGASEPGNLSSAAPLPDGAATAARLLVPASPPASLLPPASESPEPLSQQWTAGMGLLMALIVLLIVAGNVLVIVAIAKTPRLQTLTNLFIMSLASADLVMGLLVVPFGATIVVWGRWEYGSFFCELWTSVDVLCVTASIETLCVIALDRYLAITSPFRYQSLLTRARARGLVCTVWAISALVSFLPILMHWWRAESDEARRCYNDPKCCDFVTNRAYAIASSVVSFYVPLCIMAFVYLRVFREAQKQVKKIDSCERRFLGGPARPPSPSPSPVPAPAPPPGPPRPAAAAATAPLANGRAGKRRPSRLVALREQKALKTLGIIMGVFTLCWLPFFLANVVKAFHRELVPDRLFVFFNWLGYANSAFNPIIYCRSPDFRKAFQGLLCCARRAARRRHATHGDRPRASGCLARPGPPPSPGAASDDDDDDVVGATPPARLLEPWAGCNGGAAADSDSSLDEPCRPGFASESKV
The target in the next assay is Nitric oxide synthase 1 (Rattus norvegicus, UniProt P29476). Type of assay: tissue-based, Cerebellum. Further: in other assays of this panel Not Active means under 50% inhibition at 10 µM.
Sequence of Nitric oxide synthase 1 (P29476 whole entry): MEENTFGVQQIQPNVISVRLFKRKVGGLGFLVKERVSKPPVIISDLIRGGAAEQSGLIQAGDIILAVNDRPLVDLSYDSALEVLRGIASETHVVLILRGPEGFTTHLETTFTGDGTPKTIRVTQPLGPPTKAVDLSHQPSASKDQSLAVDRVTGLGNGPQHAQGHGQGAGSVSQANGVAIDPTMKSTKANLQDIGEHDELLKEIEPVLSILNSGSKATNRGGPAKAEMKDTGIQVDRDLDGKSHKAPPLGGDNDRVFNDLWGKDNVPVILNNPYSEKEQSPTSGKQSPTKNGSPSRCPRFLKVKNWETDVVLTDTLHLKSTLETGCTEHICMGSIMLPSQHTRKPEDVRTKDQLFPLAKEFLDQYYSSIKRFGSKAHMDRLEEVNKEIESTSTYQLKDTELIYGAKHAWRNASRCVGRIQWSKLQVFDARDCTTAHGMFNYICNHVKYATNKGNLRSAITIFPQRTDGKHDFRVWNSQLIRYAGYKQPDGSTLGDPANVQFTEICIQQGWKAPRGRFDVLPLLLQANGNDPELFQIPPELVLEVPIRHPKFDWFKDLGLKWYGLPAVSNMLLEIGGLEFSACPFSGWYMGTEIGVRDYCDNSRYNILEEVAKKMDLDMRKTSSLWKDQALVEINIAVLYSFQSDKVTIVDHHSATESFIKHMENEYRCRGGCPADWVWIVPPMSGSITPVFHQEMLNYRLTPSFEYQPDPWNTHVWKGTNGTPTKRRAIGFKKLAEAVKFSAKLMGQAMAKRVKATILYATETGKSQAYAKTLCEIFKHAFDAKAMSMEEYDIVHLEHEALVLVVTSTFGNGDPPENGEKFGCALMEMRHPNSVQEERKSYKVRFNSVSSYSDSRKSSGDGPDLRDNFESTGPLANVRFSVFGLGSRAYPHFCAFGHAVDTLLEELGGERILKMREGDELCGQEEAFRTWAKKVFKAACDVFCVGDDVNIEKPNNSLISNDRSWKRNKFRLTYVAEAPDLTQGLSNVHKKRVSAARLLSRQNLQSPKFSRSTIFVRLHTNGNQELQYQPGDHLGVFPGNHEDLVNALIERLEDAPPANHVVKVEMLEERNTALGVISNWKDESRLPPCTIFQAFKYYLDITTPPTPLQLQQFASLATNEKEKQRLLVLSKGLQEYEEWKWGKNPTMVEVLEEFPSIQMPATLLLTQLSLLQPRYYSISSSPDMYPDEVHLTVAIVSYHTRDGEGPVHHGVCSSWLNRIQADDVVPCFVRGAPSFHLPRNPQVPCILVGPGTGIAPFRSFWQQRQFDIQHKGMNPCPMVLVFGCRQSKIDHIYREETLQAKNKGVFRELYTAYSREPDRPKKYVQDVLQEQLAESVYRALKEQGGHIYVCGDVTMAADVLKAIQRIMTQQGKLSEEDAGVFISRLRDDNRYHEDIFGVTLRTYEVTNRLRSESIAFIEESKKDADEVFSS
For assay [2], the target named is C-C chemokine receptor type 2 (Homo sapiens, UniProt P41597). Type of assay: cell membranes, CHO-K1, Membrane. The conditions noted are these: cho-k1. Further: in other assays of this panel Not Active means under 50% inhibition at 10 µM.
Sequence of C-C chemokine receptor type 2 (P41597 whole entry): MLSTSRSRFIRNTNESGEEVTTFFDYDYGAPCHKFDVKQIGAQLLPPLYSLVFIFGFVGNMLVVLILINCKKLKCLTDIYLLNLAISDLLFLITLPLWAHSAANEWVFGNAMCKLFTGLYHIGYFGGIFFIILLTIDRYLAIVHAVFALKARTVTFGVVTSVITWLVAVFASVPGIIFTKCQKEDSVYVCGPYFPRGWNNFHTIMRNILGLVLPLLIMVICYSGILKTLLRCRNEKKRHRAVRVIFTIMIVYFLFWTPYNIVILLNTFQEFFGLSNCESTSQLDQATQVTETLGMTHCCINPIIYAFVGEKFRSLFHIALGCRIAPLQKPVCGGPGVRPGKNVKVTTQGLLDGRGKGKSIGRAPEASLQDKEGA
The target of assay [3] is T1, Receptor-type tyrosine-protein phosphatase C (Homo sapiens, UniProt P08575).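 Further: inhibition of CD45 enzyme activity measured using DiFMUP as substrate; in other assays of this panel Not Active means under 50% inhibition at 10 µM.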
T1 sequence (P08575 whole entry): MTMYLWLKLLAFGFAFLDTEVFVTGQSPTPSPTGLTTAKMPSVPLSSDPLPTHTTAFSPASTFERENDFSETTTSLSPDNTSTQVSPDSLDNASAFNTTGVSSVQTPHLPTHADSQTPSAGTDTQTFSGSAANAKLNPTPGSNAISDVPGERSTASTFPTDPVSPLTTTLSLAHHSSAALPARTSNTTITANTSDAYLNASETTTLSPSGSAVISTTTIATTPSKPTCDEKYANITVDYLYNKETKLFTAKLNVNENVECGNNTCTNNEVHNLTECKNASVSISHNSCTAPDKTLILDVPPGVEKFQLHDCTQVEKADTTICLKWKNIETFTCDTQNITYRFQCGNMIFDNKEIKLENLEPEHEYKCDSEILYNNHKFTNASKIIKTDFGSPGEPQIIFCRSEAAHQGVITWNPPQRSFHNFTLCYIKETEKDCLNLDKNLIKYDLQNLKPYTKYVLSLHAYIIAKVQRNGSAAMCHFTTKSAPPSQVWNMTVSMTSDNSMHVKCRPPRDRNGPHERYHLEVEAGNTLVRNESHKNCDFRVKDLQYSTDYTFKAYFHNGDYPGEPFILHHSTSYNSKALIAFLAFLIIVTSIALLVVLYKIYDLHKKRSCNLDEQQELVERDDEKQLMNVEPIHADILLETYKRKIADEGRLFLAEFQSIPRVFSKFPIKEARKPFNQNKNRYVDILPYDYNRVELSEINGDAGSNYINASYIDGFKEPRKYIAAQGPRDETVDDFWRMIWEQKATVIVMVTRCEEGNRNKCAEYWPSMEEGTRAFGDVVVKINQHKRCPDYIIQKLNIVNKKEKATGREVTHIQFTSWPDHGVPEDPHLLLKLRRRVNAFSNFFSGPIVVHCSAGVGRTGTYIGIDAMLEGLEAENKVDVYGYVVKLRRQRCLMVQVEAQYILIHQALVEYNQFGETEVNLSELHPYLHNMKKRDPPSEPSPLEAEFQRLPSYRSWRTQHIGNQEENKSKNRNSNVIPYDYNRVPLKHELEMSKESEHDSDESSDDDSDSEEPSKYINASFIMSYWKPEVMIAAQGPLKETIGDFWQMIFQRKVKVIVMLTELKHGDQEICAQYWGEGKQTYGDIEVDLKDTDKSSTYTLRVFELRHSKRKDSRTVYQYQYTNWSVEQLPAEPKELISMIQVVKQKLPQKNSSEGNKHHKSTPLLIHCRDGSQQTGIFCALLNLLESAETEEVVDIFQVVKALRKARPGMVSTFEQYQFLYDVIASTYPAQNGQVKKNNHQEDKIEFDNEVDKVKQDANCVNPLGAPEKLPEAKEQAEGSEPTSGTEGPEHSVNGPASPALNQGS
The arrangement: species or system Escherichia coli.

Assay [4] has as its target Platelet-activating factor receptor (Homo sapiens, UniProt P25105). Type of assay: tissue-based. Further: in other assays of this panel Not Active means under 50% inhibition at 10 µM.
For assay [5], the target named is T2, 5-hydroxytryptamine receptor 1A (Rattus norvegicus, UniProt P19327). Further: in other assays of this panel Not Active means under 50% inhibition at 10 µM.
T2 sequence (P19327 whole entry): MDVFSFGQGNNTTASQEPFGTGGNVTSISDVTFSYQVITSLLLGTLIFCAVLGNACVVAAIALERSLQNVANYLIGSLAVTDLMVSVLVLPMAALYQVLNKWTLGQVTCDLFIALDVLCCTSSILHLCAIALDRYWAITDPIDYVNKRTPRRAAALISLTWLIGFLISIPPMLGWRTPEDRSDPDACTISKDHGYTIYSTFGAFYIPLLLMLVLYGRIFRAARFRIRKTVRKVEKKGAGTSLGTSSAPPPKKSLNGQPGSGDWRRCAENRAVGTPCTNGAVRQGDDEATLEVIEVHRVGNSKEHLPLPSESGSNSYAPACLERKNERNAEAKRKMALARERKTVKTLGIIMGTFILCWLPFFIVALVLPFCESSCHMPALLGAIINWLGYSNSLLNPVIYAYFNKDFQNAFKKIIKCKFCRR
Type of assay: cell membranes, CHO-K1, Membrane.

The target in assay [6] is T3, Muscarinic acetylcholine receptor M2 (Homo sapiens, UniProt P08172). Further: in other assays of this panel Not Active means under 50% inhibition at 10 µM.
T3 sequence (P08172 whole entry): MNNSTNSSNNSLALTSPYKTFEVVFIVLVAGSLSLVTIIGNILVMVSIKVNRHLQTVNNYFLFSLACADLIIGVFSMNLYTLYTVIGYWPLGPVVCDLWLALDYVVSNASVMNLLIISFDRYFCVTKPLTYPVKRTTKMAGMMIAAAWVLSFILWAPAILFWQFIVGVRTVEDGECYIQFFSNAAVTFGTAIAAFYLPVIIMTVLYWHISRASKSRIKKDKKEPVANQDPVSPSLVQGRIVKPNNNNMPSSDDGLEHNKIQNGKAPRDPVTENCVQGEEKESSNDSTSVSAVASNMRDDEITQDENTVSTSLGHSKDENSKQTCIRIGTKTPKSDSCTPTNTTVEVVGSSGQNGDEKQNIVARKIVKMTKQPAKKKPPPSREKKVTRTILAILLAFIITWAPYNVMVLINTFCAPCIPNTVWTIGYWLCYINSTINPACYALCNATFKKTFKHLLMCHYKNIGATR
Type of assay: cell membranes, CHO-K1, Membrane.

Sequence of Platelet-activating factor receptor (P25105 whole entry): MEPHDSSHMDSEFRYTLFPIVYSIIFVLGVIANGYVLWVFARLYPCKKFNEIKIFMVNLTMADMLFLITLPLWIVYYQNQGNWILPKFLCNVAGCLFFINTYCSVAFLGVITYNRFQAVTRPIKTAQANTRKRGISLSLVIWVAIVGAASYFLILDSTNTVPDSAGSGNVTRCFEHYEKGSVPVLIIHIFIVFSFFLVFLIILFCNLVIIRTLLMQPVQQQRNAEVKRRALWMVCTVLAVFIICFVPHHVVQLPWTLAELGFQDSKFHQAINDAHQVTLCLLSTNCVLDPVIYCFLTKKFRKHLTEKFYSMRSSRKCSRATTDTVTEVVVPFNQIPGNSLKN

As to `COc1cc(/C=C/C(=O)O)ccc1O` [FERULATE], the IC50 result (in assay [1]; on Nitric oxide synthase 1; in assay [2]; in assay [3]; in assay [4]; in assay [5] (cho-k1)) was “Not Active” each time. For the same compound, the half-maximal inhibitory concentration (IC50) result in assay [6] (cho-k1) is on record as “Not Active”.

On to `CC(C)(C#N)c1cc(Cn2cncn2)cc(C(C)(C)C#N)c1` [ANASTROZOLE], for which the 50% inhibitory concentration (IC50) entry (in assay [1]; at Nitric oxide synthase 1; in assay [2]; in assay [3]; in assay [4]; in assay [5] (cho-k1)) was “Not Active” throughout. In addition, in assay [6] (cho-k1), the half-inhibitory concentration (IC50) result is listed as “Not Active”.

Turning to `COc1ccc(Cl)cc1C(=O)NCCc1ccc(S(=O)(=O)NC(=O)NC2CCCCC2)cc1` [GLYBURIDE], the IC50 result (in assay [1]; against Nitric oxide synthase 1; in assay [2]; in assay [3]; in assay [4]; in assay [5] (cho-k1)) was “Not Active” throughout. Moreover, in assay [6] (cho-k1), the IC50 entry is recorded as “Not Active”.

Consider `CC(C)NCC(O)COc1ccc(CC(N)=O)cc1` (configuration not stated) [ATENOLOL], for which the IC50 entry (at Nitric oxide synthase 1; in assay [2]; in assay [3]; in assay [4]; in assay [5] (cho-k1); in assay [6] (cho-k1)) was “Not Active” in each case.

Take `O=C(O)COC(=O)Cc1ccccc1Nc1c(Cl)cccc1Cl` [ACECLOFENAC]: the IC50 result (in assay [1]; on Nitric oxide synthase 1; in assay [2]; in assay [3]; in assay [4]; in assay [5] (cho-k1)) was “Not Active” throughout. The IC50 result in assay [6] (cho-k1) is “Not Active”.

With `Cl.NC[C@H]1CC[C@H](C(=O)Oc2ccc(CCC(=O)O)cc2)CC1` [CETRAXATE HYDROCHLORIDE], the IC50 entry (in assay [1]; on Nitric oxide synthase 1; in assay [2]; in assay [3]; in assay [4]; in assay [5] (cho-k1)) was “Not Active” in each case. Moreover, in assay [6] (cho-k1), the half-inhibitory concentration (IC50) entry was “Not Active”.

`CC(=O)[C@]1(O)Cc2c(O)c3c(c(O)c2[C@@H](O[C@H]2C[C@H](N)[C@H](O)[C@H](C)O2)C1)C(=O)c1ccccc1C3=O` [IDARUBICIN]: the half-maximal inhibitory concentration (IC50) result (in assay [1]; on Nitric oxide synthase 1; in assay [2]; in assay [3]; in assay [4]; in assay [5] (cho-k1)) was “Not Active” each time. The IC50 entry in assay [6] (cho-k1) was “Not Active”.

On to `C[C@@H]1[C@H](O)[C@@H](C)/C=C/C=C/C=C/C=C/C=C/C=C/C=C/[C@H](O[C@@H]2O[C@H](C)[C@@H](O)[C@H](N)[C@@H]2O)C[C@@H]2O[C@](O)(C[C@@H](O)C[C@@H](O)[C@H](O)CC[C@@H](O)C[C@@H](O)CC(=O)O[C@H]1C)C[C@H](O)[C@H]2C(=O)O` [AMPHOTERICIN B], for which the IC50 entry (in assay [1]; against Nitric oxide synthase 1; in assay [2]; in assay [3]; in assay [4]; in assay [5] (cho-k1)) was “Not Active” in each case. In assay [6] (cho-k1), the 50% inhibitory concentration (IC50) result is listed as “Not Active”.

Consider `O=C(O)c1ccccc1` [BENZOIC ACID], for which the IC50 entry (in assay [1]; against Nitric oxide synthase 1; in assay [2]; in assay [3]; in assay [4]; in assay [5] (cho-k1)) was “Not Active” throughout. Further, the IC50 entry in assay [6] (cho-k1) is listed as “Not Active”.

In the case of `C[C@]12CC[C@@H](O)C[C@@H]1CC[C@@H]1[C@@H]2CC[C@]2(C)C(=O)CC[C@@H]12` [ANDROSTERONE], the half-inhibitory concentration (IC50) entry (in assay [1]; against Nitric oxide synthase 1; in assay [2]; in assay [3]; in assay [4]; in assay [5] (cho-k1)) was “Not Active” throughout. Further, the IC50 result in assay [6] (cho-k1) is recorded as “Not Active”.

Consider `NCC(CC(=O)O)c1ccc(Cl)cc1` (configuration not stated) [BACLOFEN], for which the IC50 result (in assay [1]; on Nitric oxide synthase 1; in assay [2]; in assay [3]; in assay [4]; in assay [5] (cho-k1)) was “Not Active” each time. For the same compound, the half-maximal inhibitory concentration (IC50) entry in assay [6] (cho-k1) was “Not Active”.

For the compound `O=C(O)CO` [GLYCOLIC ACID], the half-inhibitory concentration (IC50) result (in assay [1]; against Nitric oxide synthase 1; in assay [2]; in assay [3]; in assay [4]; in assay [5] (cho-k1)) was “Not Active” in each case. Further, the IC50 entry in assay [6] (cho-k1) is recorded as “Not Active”.

For `COc1ccccc1OCCNCC(O)COc1cccc2[nH]c3ccccc3c12` (configuration not stated) [CARVEDILOL], the concentration for half-maximal inhibition (IC50) entry against Nitric oxide synthase 1 is “Not Active”; in assay [2], “Not Active”; in assay [3], “Not Active”; in assay [4] it was “Not Active”; in assay [5] (read-out: IC50) it was 0.00584 µM; in assay [6] (cho-k1), “Not Active”. Moreover, the Ki in assay [5] (read-out: Ki) is 0.00334 µM.

With `O=C(NCCN1CCOCC1)c1ccc(Cl)cc1` [MOCLOBEMIDE], the concentration for half-maximal inhibition (IC50) entry (in assay [1]; on Nitric oxide synthase 1; in assay [2]; in assay [3]; in assay [4]; in assay [5] (cho-k1)) was “Not Active” throughout. The IC50 result in assay [6] (cho-k1) was “Not Active”.

Consider `C=CCO` [ALLYL ALCOHOL], for which the IC50 result (in assay [1]; against Nitric oxide synthase 1; in assay [2]; in assay [3]; in assay [4]; in assay [5] (cho-k1)) was “Not Active” in each case. In addition, the IC50 result in assay [6] (cho-k1) is “Not Active”.

For `Cc1c(N)nc([C@H](CC(N)=O)NC[C@H](N)C(N)=O)nc1C(=O)N[C@H](C(=O)N[C@H](C)[C@@H](O)[C@H](C)C(=O)N[C@H](C(=O)NCCc1nc(-c2nc(C(=O)NCCC[S+](C)C)cs2)cs1)[C@@H](C)O)[C@@H](O[C@@H]1O[C@@H](CO)[C@@H](O)[C@H](O)[C@@H]1O[C@H]1O[C@H](CO)[C@@H](O)[C@H](OC(N)=O)[C@@H]1O)c1c[nH]cn1.[Br-]` [BLEOMYCIN A2], the IC50 result (against Nitric oxide synthase 1; in assay [2]; in assay [3]; in assay [4]; in assay [5] (cho-k1); in assay [6] (cho-k1)) was “Not Active” throughout.

As for `CCN(CCO)CCCC(C)Nc1ccnc2cc(Cl)ccc12` (configuration not stated) [HYDROXYCHLOROQUINE], the IC50 result on Nitric oxide synthase 1 is “Not Active”; in assay [2], “Not Active”; in assay [3], “Not Active”; in assay [4] it was “Not Active”; in assay [5] (cho-k1) it was “Not Active”; in assay [6] (read-out: IC50), 2.95 µM. The Ki in assay [6] (read-out: Ki) turned out to be 1.05 µM.
